Data: patent publication US20230257372A1 (CHONG KUN DANG PHARMACEUTICAL CORP., priority 2020, published 2023)
pIC50: −log10 of the molar value. Where two headings read alike, the source gives them in different places.

How the values were obtained:
[1] = target: T1, human recombinant HDAC1 (Homo sapiens, UniProt Q13547); assay: HDAC1 enzyme activity inhibition (HDAC Fluorimetric Drug Discovery Kit); type: biochemical; conditions: read-out: HDAC1
T1 construct: purchased Enzo Life Science, Inc. BML-SE456
In short: (§1)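 Each isoform is run in the same format: compound dilutions (5-fold steps), 10 μM substrate, […] enzyme, one hour at 30° C, then 30 minutes with developer before fluorescence readout.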

[2] = target: T2, human recombinant HDAC6 (Homo sapiens, UniProt Q9UBN7); assay: HDAC6 enzyme activity inhibition (HDAC Fluorimetric Drug Discovery Kit); type: biochemical
T2 construct: purchased Calbiochem Inc. 382180
T2 sequence (Q9UBN7 1-1215): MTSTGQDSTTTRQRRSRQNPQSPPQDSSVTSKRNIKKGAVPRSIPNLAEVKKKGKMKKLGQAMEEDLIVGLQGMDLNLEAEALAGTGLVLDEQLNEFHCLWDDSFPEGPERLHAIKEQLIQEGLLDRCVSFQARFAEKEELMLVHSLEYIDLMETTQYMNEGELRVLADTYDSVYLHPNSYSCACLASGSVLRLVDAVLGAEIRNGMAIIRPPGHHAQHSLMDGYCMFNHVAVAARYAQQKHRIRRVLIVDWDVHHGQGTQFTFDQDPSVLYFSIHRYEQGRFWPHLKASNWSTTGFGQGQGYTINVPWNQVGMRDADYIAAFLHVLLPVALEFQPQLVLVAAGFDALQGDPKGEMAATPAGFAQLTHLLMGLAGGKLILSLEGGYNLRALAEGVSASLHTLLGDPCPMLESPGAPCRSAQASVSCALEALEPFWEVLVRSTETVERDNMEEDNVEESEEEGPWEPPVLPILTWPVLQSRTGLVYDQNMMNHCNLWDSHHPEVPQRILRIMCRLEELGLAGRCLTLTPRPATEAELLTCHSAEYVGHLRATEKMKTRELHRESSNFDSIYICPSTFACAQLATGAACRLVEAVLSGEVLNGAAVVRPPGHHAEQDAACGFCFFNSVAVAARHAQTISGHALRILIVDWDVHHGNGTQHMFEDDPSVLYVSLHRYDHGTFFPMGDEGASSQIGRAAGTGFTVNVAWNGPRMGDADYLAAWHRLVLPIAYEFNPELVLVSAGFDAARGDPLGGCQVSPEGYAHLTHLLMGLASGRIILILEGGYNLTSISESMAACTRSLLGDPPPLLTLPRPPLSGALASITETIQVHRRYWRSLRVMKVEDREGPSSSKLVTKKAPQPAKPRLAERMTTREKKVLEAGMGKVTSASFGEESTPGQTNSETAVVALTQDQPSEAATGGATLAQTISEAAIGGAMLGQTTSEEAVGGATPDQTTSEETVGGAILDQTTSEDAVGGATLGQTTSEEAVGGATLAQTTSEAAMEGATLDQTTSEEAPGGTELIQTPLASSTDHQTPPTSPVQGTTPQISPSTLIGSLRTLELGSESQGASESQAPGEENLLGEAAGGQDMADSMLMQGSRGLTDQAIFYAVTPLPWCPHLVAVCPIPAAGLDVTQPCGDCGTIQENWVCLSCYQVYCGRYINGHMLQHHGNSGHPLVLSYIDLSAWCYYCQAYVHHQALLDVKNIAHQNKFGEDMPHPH
In short: as §1

[3] = human recombinant HDAC1, IC50 calculated with GraphPad Prism
[4] = human recombinant HDAC6, IC50 calculated with GraphPad Prism
[5] = human recombinant HDAC1, Fluor de Lys substrate, 30° C. 60 minutes
[6] = human recombinant HDAC6, same protocol as HDAC1

T1 sequence (Q13547 whole entry): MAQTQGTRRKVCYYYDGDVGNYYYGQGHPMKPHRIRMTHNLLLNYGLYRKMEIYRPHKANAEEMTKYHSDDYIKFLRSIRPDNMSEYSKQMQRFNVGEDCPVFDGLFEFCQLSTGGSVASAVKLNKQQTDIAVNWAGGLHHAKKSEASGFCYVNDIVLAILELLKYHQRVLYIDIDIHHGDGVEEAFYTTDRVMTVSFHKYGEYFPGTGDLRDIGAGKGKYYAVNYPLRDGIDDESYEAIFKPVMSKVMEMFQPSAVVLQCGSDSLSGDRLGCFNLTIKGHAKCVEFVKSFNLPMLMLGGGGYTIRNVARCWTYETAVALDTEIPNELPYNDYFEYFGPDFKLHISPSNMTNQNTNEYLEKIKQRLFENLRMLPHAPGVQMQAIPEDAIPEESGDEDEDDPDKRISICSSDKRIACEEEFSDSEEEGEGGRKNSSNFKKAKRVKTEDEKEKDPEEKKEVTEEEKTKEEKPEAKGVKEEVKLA

SMILES | pIC50 [1, 3] | HDAC6 selectivity (fold) ([2]; HDAC1 IC50 / HDAC6 IC50) | pIC50 [2, 4] | pIC50 [1, 5] | HDAC6 selectivity (fold) ([2]; HDAC6 over HDAC1) | pIC50 [2, 6]
CC(C)N1CC(N2CCc3cc(-c4cn(Cc5ccc(-c6nnc(C(F)F)o6)cc5F)nn4)ccc3C2)C1 [Compound 4393, 2-(difluoromethyl)-5-(3-fluoro-4-((4-(2-(1-isopropylazetidin-3-yl)-1,2,3,4-tetrahydroisoquinolin-6-yl)-1H-1,2,3-triazol-1-yl)methyl)phenyl)-1,3,4-oxadiazole] | < 4.30 | 1381 | 7.44 | – | – | –
Fc1cc(-c2nnc(C(F)F)o2)ccc1Cn1cc(-c2ccc(F)c(N3CCN(C4COC4)CC3)c2)nn1 [Compound 4427, 2-(difluoromethyl)-5-(3-fluoro-4-((4-(4-fluoro-3-(4-(oxetan-3-yl)piperazin-1-yl)phenyl)-1H-1,2,3-triazol-1-yl)methyl)phenyl)-1,3,4-oxadiazole] | < 4.30 | 548 | 7.04 | – | – | –
CN1CCC(F)(c2cn(Cc3ccc(-c4nnc(C(F)F)o4)cn3)nn2)CC1 [Compound 4005, 2-(difluoromethyl)-5-(6-((4-(4-fluoro-1-methylpiperidin-4-yl)-1H-1,2,3-triazol-1-yl)methyl)pyridin-3-yl)-1,3,4-oxadiazole] | < 4.30 | 379 | 6.88 | – | – | –
Fc1cc(-c2nnc(C(F)F)o2)ccc1Cn1cc(-c2cccc(C(F)F)c2)nn1 [Compound 4488, 2-(difluoromethyl)-5-(4-((4-(3-(difluoromethyl)phenyl)-1H-1,2,3-triazol-1-yl)methyl)-3-fluorophenyl)-1,3,4-oxadiazole] | < 4.30 | 1059 | 7.33 | – | – | –
Fc1cc(-c2nnc(C(F)F)o2)ccc1Cn1cc(-c2ccc(C3CN(C4CCC4)C3)cc2)nn1 [Compound 17699, 2-(4-((4-(4-(1-cyclobutylazetidin-3-yl)phenyl)-1H-1,2,3-triazol-1-yl)methyl)-3-fluorophenyl)-5-(difluoromethyl)-1,3,4-oxadiazole] | – | – | – | < 4.30 | 1043 | 7.32
FC(F)c1nnc(-c2ccc(Cn3cc(C4(F)CCOC4)nn3)nc2)o1 (stereo not drawn) [Compound 4281, 2-(difluoromethyl)-5-(6-((4-(3-fluorotetrahydrofuran-3-yl)-1H-1,2,3-triazol-1-yl)methyl)pyridin-3-yl)-1,3,4-oxadiazole] | < 4.30 | 412 | 6.92 | – | – | –
CC(C)(C)OC(=O)Nc1cccc(-c2cn(Cc3ccc(-c4nnc(C(F)F)o4)cc3)nn2)c1 [Compound 3698, Tert-butyl (3-(1-(4-(5-(difluoromethyl)-1,3,4-oxadiazol-2-yl)benzyl)-1H-1,2,3-triazol-4-yl)phenyl)carbamate] | < 4.30 | 1096 | 7.34 | – | – | –
CN(C)c1cccc(-c2cn(Cc3ccc(-c4nnc(C(F)F)o4)cn3)nn2)c1 [Compound 3824, 3-(1-((5-(5-(difluoromethyl)-1,3,4-oxadiazol-2-yl)pyridin-2-yl)methyl)-1H-1,2,3-triazol-4-yl)-N,N-dimethylaniline] | < 4.30 | 2439 | 7.69 | – | – | –
FC(F)c1nnc(-c2ccc(Cn3cc(-c4ccc5c(c4)CN(C4CCC4)C5)nn3)nc2)o1 [Compound 4542, 2-(6-((4-(2-cyclobutylisoindolin-5-yl)-1H-1,2,3-triazol-1-yl)methyl)pyridin-3-yl)-5-(difluoromethyl)-1,3,4-oxadiazole] | – | – | – | < 4.30 | 1336 | 7.43
CCOC(=O)N(C)c1cccc(-c2cn(Cc3ccc(-c4nnc(C(F)F)o4)cn3)nn2)c1 [Compound 3890] | < 4.30 | 1319 | 7.42 | – | – | –
FC(F)c1nnc(-c2ccc(Cn3cc(-c4cccc(CN5CCC5)c4)nn3)nc2)o1 [Compound 3963, 2-(6-((4-(3-(azetidin-1-ylmethyl)phenyl)-1H-1,2,3-triazol-1-yl)methyl)pyridin-3-yl)-5-(difluoromethyl)-1,3,4-oxadiazole] | < 4.30 | 841 | 7.23 | – | – | –
Fc1cc(-c2nnc(C(F)F)o2)ccc1Cn1cc(-c2cc3c(s2)CNCC3)nn1 [Compound 4499, 2-(difluoromethyl)-5-(3-fluoro-4-((4-(4,5,6,7-tetrahydrothieno[2,3-c]pyridin-2-yl)-1H-1,2,3-triazol-1-yl)methyl)phenyl)-1,3,4-oxadiazole] | – | – | – | < 4.30 | 922 | 7.27
Fc1cc(-c2nnc(C(F)F)o2)ccc1Cn1cc(-c2cccs2)nn1 [Compound 18258, 2-(difluoromethyl)-5-(3-fluoro-4-((4-(thiophen-2-yl)-1H-1,2,3-triazol-1-yl)methyl)phenyl)-1,3,4-oxadiazole] | – | – | – | < 4.30 | 582 | 7.07
CN(C)C(C)(C)C(=O)Nc1cccc(-c2cn(Cc3ccc(-c4nnc(C(F)F)o4)cc3)nn2)c1 [Compound 4351, N-(3-(1-(4-(5-(difluoromethyl)-1,3,4-oxadiazol-2-yl)benzyl)-1H-1,2,3-triazol-4-yl)phenyl)-2-(dimethylamino)-2-methylpropanamide] | < 4.30 | 1193 | 7.38 | – | – | –
OCCCCc1cn(Cc2ccc(-c3nnc(C(F)F)o3)cn2)nn1 [Compound 3834, 4-(1-((5-(5-(difluoromethyl)-1,3,4-oxadiazol-2-yl)pyridin-2-yl)methyl)-1H-1,2,3-triazol-4-yl)butan-1-ol] | < 4.30 | 217 | 6.62 | – | – | –
FC(F)c1nnc(-c2ccc(Cn3cc(-c4cccc(CN5CC(F)(F)C5)c4)nn3)nc2)o1 [Compound 4400, 2-(6-((4-(3-((3,3-difluoroazetidin-1-yl)methyl)phenyl)-1H-1,2,3-triazol-1-yl)methyl)pyridin-3-yl)-5-(difluoromethyl)-1,3,4-oxadiazole] | < 4.30 | 1628 | 7.51 | – | – | –
FC(F)c1cccc(-c2cn(Cc3ccc(-c4nnc(C(F)F)o4)cn3)nn2)c1 [Compound 4489, 2-(difluoromethyl)-5-(6-((4-(3-(difluoromethyl)phenyl)-1H-1,2,3-triazol-1-yl)methyl)pyridin-3-yl)-1,3,4-oxadiazole] | < 4.30 | 3401 | 7.83 | – | – | –
Fc1cc(-c2nnc(C(F)F)o2)cnc1Cn1cc(-c2ccc3cn[nH]c3c2)nn1 [Compound 18919, 2-(6-((4-(1H-indazol-6-yl)-1H-1,2,3-triazol-1-yl)methyl)-5-fluoropyridin-3-yl)-5-(difluoromethyl)-1,3,4-oxadiazole] | – | – | – | < 4.30 | 830 | 7.22
Cc1ccccc1-c1cn(Cc2ccc(-c3nnc(C(F)F)o3)cn2)nn1 [Compound 3860, 2-(difluoromethyl)-5-(6-((4-(o-tolyl)-1H-1,2,3-triazol-1-yl)methyl)pyridin-3-yl)-1,3,4-oxadiazole] | < 4.30 | 391 | 6.89 | – | – | –
CC(C)N1Cc2ccc(-c3cn(Cc4ccc(-c5nnc(C(F)F)o5)cn4)nn3)cc2C1 [Compound 4541, 2-(difluoromethyl)-5-(6-((4-(2-isopropylisoindolin-5-yl)-1H-1,2,3-triazol-1-yl)methyl)pyridin-3-yl)-1,3,4-oxadiazole] | – | – | – | < 4.30 | 1470 | 7.47
